Experimental data from US8748421B2, “Triazine compounds as P13 kinase and MTOR inhibitors” (Wyeth LLC, priority 2009, dated 2014).

Columns and labels:
PI3K-alpha = PI3K-alpha (Homo sapiens, UniProt P42336); experiment: PI3K-alpha fluorescence polarization assay; conditions: read-out: IC50 PI3Kα
PI3K-gamma = PI3K-gamma (Homo sapiens, UniProt P48736); experiment: PI3K-gamma fluorescence polarization assay; conditions: read-out: IC50 PI3Kγ
PI3K-gamma, sequence (P48736 whole entry, species assumed): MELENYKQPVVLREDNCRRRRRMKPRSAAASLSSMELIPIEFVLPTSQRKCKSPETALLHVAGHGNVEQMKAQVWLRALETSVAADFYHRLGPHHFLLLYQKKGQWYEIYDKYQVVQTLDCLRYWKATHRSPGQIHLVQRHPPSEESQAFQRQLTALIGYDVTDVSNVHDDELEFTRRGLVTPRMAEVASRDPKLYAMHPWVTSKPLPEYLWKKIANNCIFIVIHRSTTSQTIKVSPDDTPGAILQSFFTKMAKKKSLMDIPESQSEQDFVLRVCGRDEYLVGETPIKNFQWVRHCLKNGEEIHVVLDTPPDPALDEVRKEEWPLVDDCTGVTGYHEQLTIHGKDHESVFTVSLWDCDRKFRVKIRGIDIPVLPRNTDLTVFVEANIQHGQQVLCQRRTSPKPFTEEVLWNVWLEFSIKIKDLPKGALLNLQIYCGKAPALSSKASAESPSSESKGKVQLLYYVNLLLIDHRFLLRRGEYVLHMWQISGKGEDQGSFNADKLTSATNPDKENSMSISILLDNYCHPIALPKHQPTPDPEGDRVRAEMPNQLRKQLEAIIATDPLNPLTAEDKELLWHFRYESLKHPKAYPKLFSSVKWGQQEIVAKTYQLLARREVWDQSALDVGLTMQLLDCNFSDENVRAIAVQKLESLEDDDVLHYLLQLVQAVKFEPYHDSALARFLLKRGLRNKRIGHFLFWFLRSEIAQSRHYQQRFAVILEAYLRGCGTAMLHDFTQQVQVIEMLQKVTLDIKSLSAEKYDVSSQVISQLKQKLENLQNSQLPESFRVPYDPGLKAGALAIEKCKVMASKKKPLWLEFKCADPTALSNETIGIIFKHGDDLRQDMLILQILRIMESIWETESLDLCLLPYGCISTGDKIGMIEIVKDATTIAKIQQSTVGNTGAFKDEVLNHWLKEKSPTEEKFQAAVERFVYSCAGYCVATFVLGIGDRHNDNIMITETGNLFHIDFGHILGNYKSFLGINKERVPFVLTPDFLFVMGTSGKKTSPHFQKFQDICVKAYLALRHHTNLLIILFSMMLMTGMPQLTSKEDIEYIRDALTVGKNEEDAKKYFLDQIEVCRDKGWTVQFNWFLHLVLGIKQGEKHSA

PI3K-alpha, sequence (P42336 whole entry, species assumed): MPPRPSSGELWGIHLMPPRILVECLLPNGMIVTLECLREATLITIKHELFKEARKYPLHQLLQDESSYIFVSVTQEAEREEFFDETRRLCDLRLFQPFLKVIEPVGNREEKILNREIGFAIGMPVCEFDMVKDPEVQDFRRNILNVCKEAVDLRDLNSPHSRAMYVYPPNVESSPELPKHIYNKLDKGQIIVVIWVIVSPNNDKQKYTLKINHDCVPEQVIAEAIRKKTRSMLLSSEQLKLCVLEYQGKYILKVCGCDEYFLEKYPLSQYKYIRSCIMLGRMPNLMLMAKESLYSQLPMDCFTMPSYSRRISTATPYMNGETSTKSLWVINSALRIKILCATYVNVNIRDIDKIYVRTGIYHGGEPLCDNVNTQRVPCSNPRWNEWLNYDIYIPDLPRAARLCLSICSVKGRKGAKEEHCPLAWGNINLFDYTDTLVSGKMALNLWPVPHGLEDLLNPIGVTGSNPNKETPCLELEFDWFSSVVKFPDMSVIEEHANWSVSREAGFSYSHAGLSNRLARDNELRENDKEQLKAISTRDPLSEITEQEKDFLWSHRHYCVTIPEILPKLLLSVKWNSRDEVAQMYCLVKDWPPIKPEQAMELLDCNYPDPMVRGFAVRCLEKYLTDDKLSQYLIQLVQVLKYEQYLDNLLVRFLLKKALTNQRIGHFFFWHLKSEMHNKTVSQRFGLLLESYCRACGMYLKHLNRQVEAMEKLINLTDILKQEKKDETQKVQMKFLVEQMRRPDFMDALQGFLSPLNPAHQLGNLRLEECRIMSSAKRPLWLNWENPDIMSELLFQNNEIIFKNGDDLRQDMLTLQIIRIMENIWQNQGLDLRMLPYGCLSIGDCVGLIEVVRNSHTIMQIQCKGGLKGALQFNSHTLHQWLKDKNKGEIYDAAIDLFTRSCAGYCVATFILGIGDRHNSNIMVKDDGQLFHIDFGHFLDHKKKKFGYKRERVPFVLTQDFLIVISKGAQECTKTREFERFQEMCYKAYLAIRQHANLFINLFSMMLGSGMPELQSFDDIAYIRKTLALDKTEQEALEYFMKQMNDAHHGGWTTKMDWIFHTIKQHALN
PI3K-alpha, sequence (P27986 whole entry partner, species assumed): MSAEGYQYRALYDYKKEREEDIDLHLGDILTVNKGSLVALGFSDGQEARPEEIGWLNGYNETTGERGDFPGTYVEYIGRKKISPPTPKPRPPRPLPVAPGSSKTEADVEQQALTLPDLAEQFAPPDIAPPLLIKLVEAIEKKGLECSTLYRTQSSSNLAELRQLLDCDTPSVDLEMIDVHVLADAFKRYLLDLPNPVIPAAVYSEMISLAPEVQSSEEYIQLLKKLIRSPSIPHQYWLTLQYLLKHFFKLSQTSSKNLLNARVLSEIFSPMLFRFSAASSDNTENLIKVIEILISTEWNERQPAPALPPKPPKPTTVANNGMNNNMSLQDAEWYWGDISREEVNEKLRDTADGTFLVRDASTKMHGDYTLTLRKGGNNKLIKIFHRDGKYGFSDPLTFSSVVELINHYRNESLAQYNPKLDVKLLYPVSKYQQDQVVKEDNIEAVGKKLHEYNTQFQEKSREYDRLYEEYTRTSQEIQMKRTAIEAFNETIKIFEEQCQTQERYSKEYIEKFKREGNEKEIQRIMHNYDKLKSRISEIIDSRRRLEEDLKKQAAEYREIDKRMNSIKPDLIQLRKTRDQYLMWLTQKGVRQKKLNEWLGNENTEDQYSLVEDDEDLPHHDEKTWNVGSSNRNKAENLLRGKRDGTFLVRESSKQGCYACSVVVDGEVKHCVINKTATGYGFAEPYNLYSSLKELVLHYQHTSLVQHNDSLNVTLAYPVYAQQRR

Molecule | IC50 (PI3K-alpha) | IC50 (PI3K-gamma)
1-[4-(4,6-dimorpholin-4-yl-1,3,5-triazin-2-yl)phenyl]-3-[3-(1-hydroxyethyl)phenyl]urea [Example 88] | 8 nM | 74 nM
COc1ccc(NC(=O)Nc2ccc(-c3nc(N4CCOCC4)nc(N4CCOCC4)n3)cc2)c(OC)c1 [Example 7, 1-(2,4-dimethoxyphenyl)-3-[4-(4,6-dimorpholin-4-yl-1,3,5-triazin-2-yl)phenyl]-urea] |  | > 100000 nM
Cc1ccc(NC(=O)Nc2ccc(-c3nc(NC4CN(C(=O)OC(C)(C)C)C4)nc(N4CCOCC4)n3)cc2)cc1 [Example 16, tert-butyl 3-{[4-(4-{[(4-methylphenyl)carbamoyl]amino}phenyl)-6-morpholin-4-yl-1,3,5-triazin-2-yl]amino}azetidine-1-carboxylate] |  | > 100000 nM
O=C(Nc1ccc(-c2nc(N3CCOCC3)nc(N3CCOCC3)n2)cc1)Nc1ccc(C(O)(C(F)(F)F)C(F)(F)F)cc1 [Example 86, 1-[4-(4,6-dimorpholin-4-yl-1,3,5-triazin-2-yl)phenyl]-3-{4-[2,2,2-trifluoro-1-hydroxy-1-(trifluoromethyl)ethyl]phenyl}urea] | 122 nM | 444 nM
CN1CCN(c2ccc(NC(=O)Nc3ccc(-c4nc(-c5ccc(NC(=O)NC6CC6)cc5)nc(N5CC6CCC(C5)O6)n4)cc3)cc2)CC1 [Example 146, 1-cyclopropyl-3-(4-{4-[4-({[4-(4-methylpiperazin-1-yl)phenyl]carbamoyl}amino)phenyl]-6-(8-oxa-3-azabicyclo[3.2.1]oct-3-yl)-1,3,5-triazin-2-yl}phenyl)urea] |  | > 100000 nM
CCN(CC)CCOC(=O)c1ccc(NC(=O)Nc2ccc(-c3nc(N4CCOCC4)nc(N4C5CCC4COC5)n3)cc2)cc1 [Example 675, 2-(diethylamino)ethyl 4-[({4-[4-morpholin-4-yl-6-(3-oxa-8-azabicyclo[3.2.1]oct-8-yl)-1,3,5-triazin-2-yl]phenyl}carbamoyl)amino]benzoate] | 21 nM | 136 nM
CN1CCN(C(=O)c2ccc(NC(=O)Nc3ccc(-c4nc(C5CCOCC5)nc(N5CCOCC5)n4)cc3)cc2)CC1 [Example 830, 1-{4-[(4-methylpiperazin-1-yl)carbonyl]phenyl}-3-{4-[4-morpholin-4-yl-6-(tetrahydro-2H-pyran-4-yl)-1,3,5-triazin-2-yl]phenyl}urea] | 2.12 nM | 
CN(C)[C@@H]1CCN(C(=O)c2ccc(NC(=O)Nc3ccc(-c4nc(N5CCOCC5)nc(N5CCOCC5)n4)cc3)cc2)C1 [Example 831, 1-(4-{[(3R)-3-(dimethylamino)pyrrolidin-1-yl]carbonyl}phenyl)-3-[4-(4,6-dimorpholin-4-yl-1,3,5-triazin-2-yl)phenyl]urea] | 0.95 nM | 
CC(=O)NC1CCN(C(=O)c2ccc(NC(=O)Nc3ccc(-c4nc(N5CCOC[C@@H]5C)nc(N5CCOC[C@@H]5C)n4)cc3)cc2)CC1 [Example 837, N-{1-[(4-{[(4-{4,6-bis[(3S)-3-methylmorpholin-4-yl]-1,3,5-triazin-2-yl}phenyl)carbamoyl]amino}phenyl)carbonyl]piperidin-4-yl}acetamide] | 11.9 nM | 75 nM
C[C@H]1COCCN1c1nc(-c2ccc(NC(=O)Nc3ccc(C(=O)N4C5CCC4COC5)cc3)cc2)nc(N2CCOC[C@@H]2C)n1 [Example 839, 1-(4-{4,6-bis[(3S)-3-methylmorpholin-4-yl]-1,3,5-triazin-2-yl}phenyl)-3-[4-(3-oxa-8-azabicyclo[3.2.1]oct-8-ylcarbonyl)phenyl]urea] | 6.65 nM | 29 nM
C[C@H]1COCCN1c1nc(-c2ccc(NC(=O)Nc3ccc(C(=O)N4CC[C@H](N(C)C)C4)cc3)cc2)nc(N2CCOC[C@@H]2C)n1 [Example 841, 1-(4-{4,6-bis[(3S)-3-methylmorpholin-4-yl]-1,3,5-triazin-2-yl}phenyl)-3-(4-{[(3S)-3-(dimethylamino)pyrrolidin-1-yl]carbonyl}phenyl)urea] |  | 108 nM
C[C@H]1COCCN1c1nc(-c2ccc(NC(=O)Nc3ccc(C(=O)N4CC[C@@H](N(C)C)C4)cc3)cc2)nc(N2CCOC[C@@H]2C)n1 [Example 842, 1-(4-{4,6-bis[(3S)-3-methylmorpholin-4-yl]-1,3,5-triazin-2-yl}phenyl)-3-(4-{[(3R)-3-(dimethylamino)pyrrolidin-1-yl]carbonyl}phenyl)urea] | 3.55 nM | 54.5 nM
CC(C)N1CCCN(c2nc(-c3ccc(NC(=O)Nc4ccc(C(=O)N5CC[C@H](N(C)C)C5)cc4)cc3)nc(N3CCOCC3)n2)CC1 [Example 843, 1-(4-{[(3S)-3-(dimethylamino)pyrrolidin-1-yl]carbonyl}phenyl)-3-(4-{4-(morpholin-4-yl)-6-[4-(propan-2-yl)-1,4-diazepan-1-yl]-1,3,5-triazin-2-yl}phenyl)urea] | 28.5 nM | 291 nM
CC(C)N1CCCN(c2nc(-c3ccc(NC(=O)Nc4ccc(C(=O)N5CC[C@@H](N(C)C)C5)cc4)cc3)nc(N3CCOCC3)n2)CC1 [Example 844, 1-(4-{[(3R)-3-(dimethylamino)pyrrolidin-1-yl]carbonyl}phenyl)-3-(4-{4-(morpholin-4-yl)-6-[4-(propan-2-yl)-1,4-diazepan-1-yl]-1,3,5-triazin-2-yl}phenyl)urea] | 21 nM | 238 nM
CC(C)N1CCCN(c2nc(-c3ccc(NC(=O)Nc4ccc(C(=O)N5CC[C@@H](N(C)C)C5)cc4)cc3)nc(N3CCOCC3)n2)CC1 [Example 847, 1-(4-{[(3R)-3-(dimethylamino)pyrrolidin-1-yl]carbonyl}phenyl)-3-(4-{4-(morpholin-4-yl)-6-[4-(propan-2-yl)-1,4-diazepan-1-yl]-1,3,5-triazin-2-yl}phenyl)urea] | 10.5 nM | 87.5 nM

More lines, now with the values ahead:

IC50 (PI3K-alpha) | IC50 (PI3K-gamma) | Molecule
2.58 nM | 8.25 nM | CC(C)N1CCN(C(=O)c2ccc(NC(=O)Nc3ccc(-c4nc(C5CCOCC5)nc(N5CCOCC5)n4)cc3)cc2)CC1 [Example 833, 1-(4-{[4-(1-methylethyl)piperazin-1-yl]carbonyl}phenyl)-3-{4-[4-morpholin-4-yl-6-(tetrahydro-2H-pyran-4-yl)-1,3,5-triazin-2-yl]phenyl}urea]
0.75 nM | 10 nM | CN(C)CCN(C)C(=O)c1ccc(NC(=O)Nc2ccc(-c3nc(C4CCOCC4)nc(N4CCOCC4)n3)cc2)cc1 [Example 834, N-[2-(dimethylamino)ethyl]-N-methyl-4-[({4-[4-morpholin-4-yl-6-(tetrahydro-2H-pyran-4-yl)-1,3,5-triazin-2-yl]phenyl}carbamoyl)amino]benzamide]
4.15 nM | 18.5 nM | O=C(Nc1ccncc1)Nc1ccc(-c2nc(OC3CNC3)nc(N3CCOCC3)n2)cc1 [Example 835, 1-{4-[4-(azetidin-3-yloxy)-6-morpholin-4-yl-1,3,5-triazin-2-yl]phenyl}-3-pyridin-4-ylurea]
5 nM | 17.5 nM | CC(C)NC(=O)N1CC(Oc2nc(-c3ccc(NC(=O)Nc4ccncc4)cc3)nc(N3CCOCC3)n2)C1 [Example 836, N-(1-methylethyl)-3-[(4-morpholin-4-yl-6-{4-[(pyridin-4-ylcarbamoyl)amino]phenyl}-1,3,5-triazin-2-yl)oxy]azetidine-1-carboxamide]
4.95 nM | 24.5 nM | CC(C)N1CCCN(C(=O)c2ccc(NC(=O)Nc3ccc(-c4nc(N5CCOC[C@@H]5C)nc(N5CCOC[C@@H]5C)n4)cc3)cc2)CC1 [Example 838, 1-(4-{4,6-bis[(3S)-3-methylmorpholin-4-yl]-1,3,5-triazin-2-yl}phenyl)-3-(4-{[4-(1-methylethyl)-1,4-diazepan-1-yl]carbonyl}phenyl)urea]
5.15 nM | 15 nM | C[C@H]1COCCN1c1nc(-c2ccc(NC(=O)Nc3ccc(C(=O)N4CCC(C#N)CC4)cc3)cc2)nc(N2CCOC[C@@H]2C)n1 [Example 840, 1-(4-{4,6-bis[(3S)-3-methylmorpholin-4-yl]-1,3,5-triazin-2-yl}phenyl)-3-{4-[(4-cyanopiperidin-1-yl)carbonyl]phenyl}urea]
0.25 nM | 2.75 nM | CC1CNCCN1C(=O)c1ccc(NC(=O)Nc2ccc(-c3nc(N4CCOCC4)nc(N4CCOCC4)n3)cc2)cc1 (stereo not drawn) [Example 845, 1-{4-[4,6-di(morpholin-4-yl)-1,3,5-triazin-2-yl]phenyl}-3-{4-[(2-methylpiperazin-1-yl)carbonyl]phenyl}urea]
3.5 nM | 22.5 nM | CC(C)N1CCCN(c2nc(-c3ccc(NC(=O)Nc4ccc(C(=O)N5CCNCC5)cc4)cc3)nc(N3CCOCC3)n2)CC1 [Example 846, 1-(4-{4-(morpholin-4-yl)-6-[4-(propan-2-yl)-1,4-diazepan-1-yl]-1,3,5-triazin-2-yl}phenyl)-3-[4-(piperazin-1-ylcarbonyl)phenyl]urea]
1.05 nM | 6 nM | CN1CCN(C(=O)c2ccc(NC(=O)Nc3ccc(-c4nc(N5CCOCC5)nc(N5CCOCC5)n4)cc3)cc2)CC1(C)C [Example 848, 1-{4-[4,6-di(morpholin-4-yl)-1,3,5-triazin-2-yl]phenyl}-3-{4-[(3,3,4-trimethylpiperazin-1-yl)carbonyl]phenyl}urea]
0.3 nM | 3.17 nM | C[C@@H]1CN(C(=O)c2ccc(NC(=O)Nc3ccc(-c4nc(N5CCOCC5)nc(N5CCOCC5)n4)cc3)cc2)CCN1 [Example 849, 1-{4-[4,6-di(morpholin-4-yl)-1,3,5-triazin-2-yl]phenyl}-3-(4-{[(3R)-3-methylpiperazin-1-yl]carbonyl}phenyl)urea]
0.65 nM | 6.1 nM | C[C@@H]1CN(C(=O)c2ccc(NC(=O)Nc3ccc(-c4nc(N5CCOCC5)nc(N5CCOCC5)n4)cc3)cc2)CCN1C [Example 850, 1-(4-{[(3R)-3,4-dimethylpiperazin-1-yl]carbonyl}phenyl)-3-{4-[4,6-di(morpholin-4-yl)-1,3,5-triazin-2-yl]phenyl}urea]
0.85 nM | 5.6 nM | C[C@@H]1CN(C(=O)c2ccc(NC(=O)Nc3ccc(-c4nc(N5CCOCC5)nc(N5CCOCC5)n4)cc3)cc2)CCN1C1CCC1 [Example 851, 1-(4-{[(3R)-4-cyclobutyl-3-methylpiperazin-1-yl]carbonyl}phenyl)-3-{4-[4,6-di(morpholin-4-yl)-1,3,5-triazin-2-yl]phenyl}urea]
